This passage reports inhibition results from patent US8119633B2, “Substituted sulfonamide compounds” (Gruenenthal GmbH, priority 2007, dated 2012).

Test [1] deals with T1, human bradykinin receptor 1 (B1R) (Homo sapiens, UniProt P46663).
T1 construct: expressed in transfected cells; host or cells: CHO K1 cells
T1 sequence (P46663 1-353): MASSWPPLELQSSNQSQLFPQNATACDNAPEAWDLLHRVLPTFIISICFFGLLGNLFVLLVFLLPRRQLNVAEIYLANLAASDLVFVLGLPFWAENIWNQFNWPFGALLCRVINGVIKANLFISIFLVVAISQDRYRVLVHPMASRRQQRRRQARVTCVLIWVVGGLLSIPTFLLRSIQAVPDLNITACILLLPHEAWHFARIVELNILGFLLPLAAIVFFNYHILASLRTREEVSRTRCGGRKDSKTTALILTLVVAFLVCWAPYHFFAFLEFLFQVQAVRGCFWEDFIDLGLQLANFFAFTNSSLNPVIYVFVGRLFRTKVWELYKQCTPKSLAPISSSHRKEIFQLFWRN
Briefly: Functional study on the bradykinin receptor 1 (B1R), human: FLIPR Ca2+ influx assay. In kind it is cell-based. The conditions noted are these: test substance 10 μM; CHO K1 cells transfected with human B1R; Lys-Des-Arg9-bradykinin at EC80; Ca2+ influx (Fluo-4, FLIPR); read-out: B1R antagonism, human [10 μM] % inhibition. Summed up:
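CHO K1 cells stably expressing human B1R were loaded with Fluo-4, and Ca2+ fluorescence was read on FLIPR (ex 488/em 540 nm). Compound was added first (10 μM for % activation against Lys-Des-Arg9-bradykinin ≥0.5 nM). After 10-20 min, Lys-Des-Arg9-bradykinin was added at EC80 for % inhibition; IC50 came from concentration series, n=2-3, N≥2.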

The next test concerns the target T2, human μ-opiate receptor (Homo sapiens, UniProt P35372).
T2 construct: purchased PerkinElmer Life Sciences, Zaventem, Belgium RB-HOM; host or cells: CHO-K1 cells (membrane preparation)
As to the kind of experiment: Affinity for the human μ-opiate receptor ([3H]-naloxone displacement, SPA). The conditions noted are these: test substance 1 μmol/l; inhibition of specific [3H]-naloxone binding; CHO-K1 receptor membrane preparation; read-out: μ-Opioid receptor [1 μM] % inhibition. The method, then:
Studies of the Effectiveness of the Compounds According to the Invention Method for determining the affinity for the human μ-opiate receptor
The receptor affinity for the human μ-opiate receptor is determined in a homogeneous batch on microtitre plates. To this end, serial dilutions of the substances to be tested are incubated for 90 minutes at room temperature with a receptor membrane preparation (15-40 μg of protein/250 μl of incubation batch) of CHO-K1 cells, which express the human μ-opiate receptor (RB-HOM receptor membrane preparation from PerkinElmer Life Sciences, Zaventem, Belgium), in the presence of 1 nmol/l of the radioactive ligand [^3H]-naloxone (NET719, PerkinElmer Life Sciences, Zaventem, Belgium) and 1 mg of WGA-SPA beads (wheatgerm agglutinin SPA beads from Amersham/Pharmacia, Freiburg, Germany) in a total volume of 250 μl. The incubation buffer used is 50 mmol/l of Tris-HCl supplemented with 0.06 wt. % bovine serum albumin. In order to determine non-specific binding, 100 μmol/l of naloxone is additionally added. When the ninety-minute incubation time has ended, the microtitre plates are centrifuged off for 20 minutes at 1000 g and the radioactivity is measured in a β-counter (Microbeta-Trilux, PerkinElmer Wallac, Freiburg, Germany). The percentage displacement of the radioactive ligand from its binding to the human μ-opiate receptor at a concentration of the test substances of 1 μmol/l is determined and stated as the percentage inhibition of specific binding. On the basis of the percentage displacement by different concentrations of the test substances, IC50 inhibitory concentrations, which effect 50% displacement of the radioactive ligand, are calculated. Ki values for the test substances are obtained by conversion by means of the Cheng-Prusoff equation.

The target in test [2] is T3, bradykinin receptor 1 (B1R) of the rat (Rattus norvegicus, UniProt P97583).
T3 construct: expressed in transfected cells; host or cells: CHO K1 cells
T3 sequence (P97583 1-337): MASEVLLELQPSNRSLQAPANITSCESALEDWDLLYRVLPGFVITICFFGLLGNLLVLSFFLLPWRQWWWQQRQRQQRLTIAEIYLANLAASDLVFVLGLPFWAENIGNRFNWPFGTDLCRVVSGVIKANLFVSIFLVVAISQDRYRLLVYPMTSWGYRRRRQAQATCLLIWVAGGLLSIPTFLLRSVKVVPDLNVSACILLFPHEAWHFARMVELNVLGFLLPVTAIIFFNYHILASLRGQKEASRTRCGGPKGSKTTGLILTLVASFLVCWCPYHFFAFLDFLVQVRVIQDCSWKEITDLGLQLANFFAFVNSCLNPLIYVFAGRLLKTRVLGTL
As to the kind of experiment: Functional study on the bradykinin receptor 1 (B1R), rat: FLIPR Ca2+ influx assay. It counts as cell-based. The conditions noted are these: test substance 10 μM; CHO K1 cells transfected with rat B1R; Des-Arg9-bradykinin at EC80; Ca2+ influx (Fluo-4, FLIPR); read-out: B1R antagonism, rat [10 μM] % inhibition. Summed up: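 CHO K1 cells stably expressing rat B1R, Fluo-4-loaded, read on FLIPR (ex 488/em 540 nm, peak fluorescence). Test substances added first (agonism vs 10 μM Des-Arg9-bradykinin), then after 10-20 min Des-Arg9-bradykinin at EC80; % inhibition and IC50 from concentration series, n=2-3, N≥2.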

T2 sequence (P35372 whole entry): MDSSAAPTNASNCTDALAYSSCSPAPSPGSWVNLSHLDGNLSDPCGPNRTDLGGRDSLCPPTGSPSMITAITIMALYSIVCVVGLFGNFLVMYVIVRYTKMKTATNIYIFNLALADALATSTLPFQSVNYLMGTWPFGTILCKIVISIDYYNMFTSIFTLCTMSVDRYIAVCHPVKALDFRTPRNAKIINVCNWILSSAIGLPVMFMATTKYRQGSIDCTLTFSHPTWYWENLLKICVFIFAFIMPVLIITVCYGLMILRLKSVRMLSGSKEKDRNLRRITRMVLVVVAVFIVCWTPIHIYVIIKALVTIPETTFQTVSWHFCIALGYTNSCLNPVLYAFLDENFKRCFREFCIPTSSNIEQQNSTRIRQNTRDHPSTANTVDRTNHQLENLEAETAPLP

Broadly, the inhibition is the change of the read-out against control, counted positive when it falls. Regarding `O=C1NCCN(S(=O)(=O)c2ccc(Cl)cc2Cl)C1CC(=O)N1CCCCC1C(Cc1ccccc1)N1CCOCC1` (stereo not drawn) [Example 63, 4-(2,4-dichlorophenylsulfonyl)-3-(2-(2-(1-morpholino-2-phenylethyl)piperidin-1-yl)-2-oxoethyl)piperazin-2-one], the inhibition at 10 µM in test [1] is 28.6%; in test [2], -3%. Moreover, the inhibition at 1 µM on human μ-opiate receptor came to 47%.
In the same order, the values of `O=C(CC1C(=O)Nc2ccccc2N1S(=O)(=O)c1ccc(Cl)c(Cl)c1)NCC1CCC(C(c2ccccc2)N2CCOCC2)CC1` (stereo not drawn) [Example 64, 2-[1-(3,4-dichloro-benzenesulfonyl)-3-oxo-1,2,3,4-tetrahydro-quinoxalin-2-yl]-N-[4-(morpholin-4-yl-phenyl-methyl)-cyclohexylmethyl]-acetamide] are 104%, 29% and 10%.
For `O=C(CC1C(=O)Nc2ccccc2N1S(=O)(=O)c1ccc(Cl)c(Cl)c1)NCC1CCC(C(CCc2ccccc2)N2CCOCC2)CC1` (stereo not drawn) [Example 65, 2-[1-(3,4-dichloro-benzenesulfonyl)-3-oxo-1,2,3,4-tetrahydro-quinoxalin-2-yl]-N-[4-(1-morpholin-4-yl-3-phenyl-propyl)-cyclohexylmethyl]-acetamide] the same measures were 103%, 24% and 9%.
For `O=C(CC1C(=O)Nc2ccccc2N1S(=O)(=O)c1ccc(Cl)c(Cl)c1)NCC1CCC(C(CCc2ccccc2)N2CCCC2)CC1` (stereo not drawn) [Example 66, 2-[1-(3,4-dichloro-benzenesulfonyl)-3-oxo-1,2,3,4-tetrahydro-quinoxalin-2-yl]-N-[4-(3-phenyl-1-pyrrolidin-1-yl-propyl)-cyclohexylmethyl]-acetamide] the same measures were 102%, 96% and 11%.
For `O=C(CC1C(=O)Nc2ccccc2N1S(=O)(=O)c1ccc(Cl)c(Cl)c1)NCC1CCC(C(c2ccccc2)N2CCCC2)CC1` (stereo not drawn) [Example 67, 2-[1-(3,4-dichloro-benzenesulfonyl)-3-oxo-1,2,3,4-tetrahydro-quinoxalin-2-yl]-N-[4-(phenyl-pyrrolidin-1-yl-methyl)-cyclohexylmethyl]-acetamide], the inhibition at 10 µM in test [1] and in test [2] was 104% throughout. In addition, the inhibition at 1 µM at human μ-opiate receptor is 64%.
Take `O=C(CC1C(=O)Nc2ccccc2N1S(=O)(=O)c1ccc(Cl)c(Cl)c1)NC1CCC(C(CCc2ccccc2)N2CCCCC2)CC1` (stereo not drawn) [Example 68, 2-[1-(3,4-dichloro-benzenesulfonyl)-3-oxo-1,2,3,4-tetrahydro-quinoxalin-2-yl]-N-[4-(3-phenyl-1-piperidin-1-yl-propyl)-cyclohexyl]-acetamide]: the inhibition at 10 µM was 104% in test [1] and 37% in test [2]. Besides, at human μ-opiate receptor, the inhibition at 1 µM came to 30%.
In the same order, the values of `O=C(CC1C(=O)Nc2ccccc2N1S(=O)(=O)c1ccc(Cl)c(Cl)c1)NC1CCC(C(CCc2ccccc2)N2CCOCC2)CC1` (stereo not drawn) [Example 69, 2-[1-(3,4-dichloro-benzenesulfonyl)-3-oxo-1,2,3,4-tetrahydro-quinoxalin-2-yl]-N-[4-(1-morpholin-4-yl-3-phenyl-propyl)-cyclohexyl]-acetamide] are 105%, 19% and 7%.
As to `CN1CCN(C(c2ccccc2)C2CCC(NC(=O)CC3C(=O)Nc4ccccc4N3S(=O)(=O)c3ccc(Cl)c(Cl)c3)CC2)CC1` (stereo not drawn) [Example 70, 2-[1-(3,4-dichloro-benzenesulfonyl)-3-oxo-1,2,3,4-tetrahydro-quinoxalin-2-yl]-N-{4-[(4-methyl-piperazin-1-yl)-phenyl-methyl]-cyclohexyl}-acetamide], the inhibition at 10 µM in test [1] came out at 104%; in test [2] it was 98%. In addition, on human μ-opiate receptor, the inhibition at 1 µM is 11%.
In the case of `O=C1Nc2ccccc2N(S(=O)(=O)c2ccc(Cl)c(Cl)c2)C1CC(=O)N1CCC(C(c2ccccc2)N2CCOCC2)CC1` (stereo not drawn) [Example 71, 4-(3,4-dichloro-benzenesulfonyl)-3-{2-[4-(morpholin-4-yl-phenyl-methyl)piperidin-1-yl]-2-oxo-ethyl}-3,4-dihydro-1H-quinoxalin-2-one], the inhibition at 10 µM in test [1] stood at 104%; in test [2], 32%. The inhibition at 1 µM on human μ-opiate receptor is 12%.
For `O=C1Nc2ccccc2N(S(=O)(=O)c2ccc(Cl)c(Cl)c2)C1CC(=O)N1CCC(C(Cc2ccccc2)N2CCOCC2)CC1` (stereo not drawn) [Example 72, 4-(3,4-dichlorophenylsulfonyl)-3-(2-(4-(1-morpholino-2-phenylethyl)piperidin-1-yl)-2-oxoethyl)-3,4-dihydroquinoxalin-2(1H)-one] the same measures were 102%, 30% and 26%.
In the same order, the values of `O=C(CC1CCCN1S(=O)(=O)c1ccc(Cl)c(Cl)c1)NCC1CCC(C(c2ccccc2)N2CCOCC2)CC1` (stereo not drawn) [Example 73, 2-[1-(3,4-dichloro-benzenesulfonyl)-pyrrolidin-2-yl]-N-[4-(morpholin-4-yl-phenyl-methyl)-cyclohexylmethyl]-acetamide] are 76.3%, 36% and 17%.
Take `O=C(CC1CCCN1S(=O)(=O)c1ccc(Cl)c(Cl)c1)NCC1CCC(C(CCc2ccccc2)N2CCOCC2)CC1` (stereo not drawn) [Example 74, 2-[1-(3,4-dichloro-benzenesulfonyl)-pyrrolidin-2-yl]-N-[4-(1-morpholin-4-yl-3-phenyl-propyl)-cyclohexylmethyl]-acetamide]: the inhibition at 10 µM was 54.7% in test [1] and 19% in test [2]. Also, the inhibition at 1 µM at human μ-opiate receptor was 7%.
In the same order, the values of `O=C(CC1CCCN1S(=O)(=O)c1ccc(Cl)c(Cl)c1)NCC1CCC(C(CCc2ccccc2)N2CCCC2)CC1` (stereo not drawn) [Example 75, 2-[1-(3,4-dichloro-benzenesulfonyl)-pyrrolidin-2-yl]-N-[4-(3-phenyl-1-pyrrolidin-1-yl-propyl)-cyclohexylmethyl]-acetamide] are 91.7%, 2% and 65%.
Consider `O=C(CC1CCCN1S(=O)(=O)c1ccc(Cl)c(Cl)c1)NCC1CCC(C(c2ccccc2)N2CCCC2)CC1` (stereo not drawn) [Example 76, 2-[1-(3,4-dichloro-benzenesulfonyl)-pyrrolidin-2-yl]-N-[4-(phenyl-pyrrolidin-1-ylmethyl)-cyclohexylmethyl]-acetamide], for which the inhibition at 10 µM in test [1] is 80.4%; in test [2], 9%. The inhibition at 1 µM on human μ-opiate receptor was 84%.
